Measurements from patent publication US6586439B2, “Pharmaceutically active compounds” (Pfizer Inc., priority 1999, dated 2003).

System: cGMP PDE5
Test: In vitro PDE inhibitory activity against cGMP PDE5 (batch method or scintillation proximity assay)
Assay type: biochemical, human or rabbit
Protocol: In vitro PDE inhibitory activities against cyclic guanosine 3′,5′-monophosphate (cGMP) and cyclic adenosine 3′,5′-monophosphate (cAMP) phosphodiesterases were determined by measurement of their IC50 values (the concentration of compound required for 50% inhibition of enzyme activity).
The required PDE enzymes were isolated from a variety of sources, including human corpus cavernosum, human and rabbit platelets, human cardiac ventricle, human skeletal muscle and bovine retina, essentially by the method of W. J. Thompson and M. M. Appleman (Biochem., 1971, 10, 311). In particular, the cGMP-specific PDE (PDE5) and the cGMP-inhibited cAMP PDE (PDE3) were obtained from human corpus cavernosum tissue, human platelets or rabbit platelets; the cGMP-stimulated PDE (PDE2) was obtained from human corpus cavernosum; the calcium/calmodulin (Ca/CAM)-dependent PDE (PDE1) from human cardiac ventricle; the cAMP-specific PDE (PDE4) from human skeletal muscle; and the photoreceptor PDE (PDE6) from bovine retina. Phosphodiesterases 7-11 were generated from full length human recombinant clones transfected into SF9 cells.
Assays were performed either using a modification of the “batch” method of W. J. Thompson et al. (Biochem., 1979, 18, 5228) or using a scintillation proximity assay for the direct detection of AMP/GMP using a modification of the protocol described by Amersham plc under product code TRKQ7090/7100. In summary, the effect of PDE inhibitors was investigated by assaying a fixed amount of enzyme in the presence of varying inhibitor concentrations and low substrate, (cGMP or cAMP in a 3:1 ratio unlabelled to [^3H]-labeled at a conc ˜1/3 Km) such that IC50 ≅Ki. The final assay volume was made up to 100 μl with assay buffer [20 mM Tris-HCl pH 7.4, 5 mM MgCl2, 1 mg/ml bovine serum albumin]. Reactions were initiated with enzyme, incubated for 30-60 min at 30° C. to give <30% substrate turnover and terminated with 50 μl yttrium silicate SPA beads (containing 3 mM of the respective unlabelled cyclic nucleotide for PDEs 9 and 11). Plates were re-sealed and shaken for 20 min, after which the beads were allowed to settle for 30 min in the dark and then counted on a TopCount plate reader (Packard, Meriden, Conn.) Radioactivity units were converted to % activity of an uninhibited control (100%), plotted against inhibitor concentration and inhibitor IC50 values obtained using the ‘Fit Curve’ Microsoft Excel extension.

| SMILES | Percentage inhibition of PDE 5 (Concentration 100 nM) | Percentage inhibition of PDE 5 (Concentration 10 nM) |
| --- | --- | --- |
| CCCOc1ccc(S(=O)(=O)N2CCN(CC)CC2)cc1-c1nc2[nH]cnc2c(=O)[nH]1 [Example 1, 2-[5-(4-Ethylpiperazin-1-ylsulfonyl)-2-n-propoxyphenyl]-9H-purin-6-one] | 47 | – |
| CCCOc1ccc(S(=O)(=O)N2CCN(CC)CC2)cc1-c1nc2c(ncn2-c2ccc(N)cc2)c(=O)[nH]1 [Example 4, 9-(4-Aminophenyl)-2-[5-(4-ethylpiperazin-1-ylsulfonyl)-2-n-propoxy-phenyl]purin-6-one] | – | 74.1 |
| CCCOc1ccc(S(=O)(=O)N2CCN(C)CC2)cc1-c1nc2[nH]c(-c3cccnc3)nc2c(=O)[nH]1 [Example 5, 2-[5-(4-Methylpiperazin-1-ylsulfonyl)-2-n-propoxyphenyl]-8-(pyridin-3-yl)-9H-purin-6-one] | 48 | – |
| CCCCOc1ncc(S(=O)(=O)N2CCN(CC)CC2)cc1-c1nc2c(nc(Cc3ccccc3)n2CCC)c(=O)[nH]1 [Example 7, 8-Benzyl-2-[2-n-butoxy-5-(4-ethylpiperazin-1-ylsulfonyl)pyridin-3-yl]-9-n-propylpurin-6-one] | – | 80.3 |
| CCCOc1ccc(S(=O)(=O)N2CCN(c3ccccn3)CC2)cc1-c1nc2c(ncn2CCC)c(=O)[nH]1 [Example 9, 2-(2-n-Propoxy-5-[4-{pyridin-2-yl}piperazin-1-ylsulfonyl]phenyl)-9-n-propylpurin-6-one] | – | 100 |
